This note sets out measurements from PubChem BioAssay (NCI).

Test systems include ACHN renal; KM12 colon; LOX IMVI melanoma; MCF7 breast; MDA-MB-435; OVCAR-8 ovarian; RPMI-8226 leukemia; SNB-19 CNS; TK-10 renal; MALME-3M melanoma.
Test in all cases: NCI anticancer screen, dose series, 48 h

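The compound was tested at five concentrations on cells cultured in 96-well plates, with a 48-hour exposure period. Definition used: TGI = concentration required for complete inhibition of growth.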 Some results are limits rather than exact numbers.

Consider `CCOC(=O)c1csc(NC(=O)CCN2CCCC2)n1`, for which the TGI in the test on ACHN renal, in the test on KM12 colon, in the test with LOX IMVI melanoma, with MCF7 breast, with MDA-MB-435 and in the test with OVCAR-8 ovarian was above 100 µM each time. Moreover, the TGI in the test with RPMI-8226 leukemia, with SNB-19 CNS and with TK-10 renal was above 100 µM in each case.
With `COc1ccc(C(=O)/C=C/SC(=NC#N)SC)cc1`, the TGI with ACHN renal amounted to 46.7 µM; in the test on KM12 colon, 63.9 µM; with MALME-3M melanoma, 50.3 µM; in the test with MCF7 breast, 38.2 µM; with MDA-MB-435 it was 49.2 µM; in the test on OVCAR-8 ovarian it was 46.8 µM. Moreover, the TGI is above 100 µM with RPMI-8226 leukemia, 35.2 µM in the test on SNB-19 CNS and 42.2 µM in the test on TK-10 renal.
For the compound `N#CCCN(CCC#N)c1ccc(C(N=Nc2ccccc2)=Nc2ccc(F)cc2)cc1`, the TGI in the test on ACHN renal, in the test on KM12 colon, in the test with MCF7 breast, in the test on MDA-MB-435, in the test with OVCAR-8 ovarian and in the test with RPMI-8226 leukemia was above 100 µM throughout. The TGI with SNB-19 CNS and in the test with TK-10 renal was above 100 µM in each case.
As to `CCOC(=O)c1csc(NC(=O)CCN2CCN(C)CC2)n1`, the TGI in the test with ACHN renal, with KM12 colon, in the test on LOX IMVI melanoma, with MCF7 breast, in the test on MDA-MB-435 and in the test with OVCAR-8 ovarian was above 100 µM throughout. Besides, the TGI with RPMI-8226 leukemia, in the test on SNB-19 CNS and in the test with TK-10 renal was above 100 µM in each case.
Regarding `CCOC(=O)c1c(SCc2cc(=O)[nH]c(=O)[nH]2)n(-c2ccccc2)c(=S)n(-c2ccccc2)c1=O`, the TGI in the test on ACHN renal, with KM12 colon, in the test on MALME-3M melanoma, with MCF7 breast, in the test with MDA-MB-435 and in the test on OVCAR-8 ovarian was above 100 µM each time. Besides, the TGI with RPMI-8226 leukemia, with SNB-19 CNS and with TK-10 renal was above 100 µM throughout.
As for `CCOC(=O)/C=C/CCC(C)(C)COC(C)=O`, the TGI with ACHN renal, in the test on KM12 colon, with LOX IMVI melanoma, with MCF7 breast, with MDA-MB-435 and with OVCAR-8 ovarian was above 10 µM throughout. The TGI in the test with RPMI-8226 leukemia, in the test on SNB-19 CNS and with TK-10 renal was above 10 µM each time.
As to `O=c1c2c3c(sc2nc2n1N=C(c1ccc(Br)cc1)CS2)CCCC3`, the TGI with ACHN renal, with KM12 colon, with LOX IMVI melanoma, in the test with MALME-3M melanoma, in the test on MCF7 breast and with MDA-MB-435 was above 100 µM each time. The TGI in the test on OVCAR-8 ovarian, with SNB-19 CNS and with TK-10 renal was above 100 µM in each case.
Take `CC(=N/NC(=S)N(C)C)/C(=N\NC(=S)N(C)C)c1ccccc1`: the TGI in the test with ACHN renal is 3.26 µM; with KM12 colon it was 4.44 µM; with LOX IMVI melanoma, above 100 µM; in the test with MALME-3M melanoma, 3.5 µM; with MCF7 breast, above 25.6 µM; with MDA-MB-435, 3.56 µM. Besides, the figures for the TGI with SNB-19 CNS and in the test with TK-10 renal were 6.85 µM and 3 µM, respectively.
Regarding `CC1(C)C=C(/C=C2/N(S(=O)(=O)C(F)(F)F)C(/C=C3/N(S(=O)(=O)C(F)(F)F)C(C)(C#N)CC3(C)C)=CC2(C)C)N=C1/C=C1/CC(C)(C)C(=O)N1` (configuration not stated), the TGI is above 100 µM in the test with ACHN renal; above 100 µM with KM12 colon; 72.9 µM in the test on LOX IMVI melanoma; above 100 µM in the test on MCF7 breast; above 100 µM in the test on MDA-MB-435; above 100 µM in the test on OVCAR-8 ovarian. Further, the TGI in the test on RPMI-8226 leukemia was 23.4 µM; in the test on SNB-19 CNS it was above 100 µM; with TK-10 renal, above 100 µM.
Take `CCn1ncc2c(=O)n3ncn(-c4ccc(Br)cc4)c3nc21`: the TGI with ACHN renal, in the test on KM12 colon, in the test with MALME-3M melanoma, with MCF7 breast, with MDA-MB-435 and in the test with OVCAR-8 ovarian was above 100 µM each time. Also, the TGI in the test on RPMI-8226 leukemia, in the test with SNB-19 CNS and in the test on TK-10 renal was above 100 µM throughout.
As for `COc1ccc2c(c1OC)C(=O)N1C2=Cc2c(cc3c(c2OC)OCO3)CC1N(C)C` (configuration not stated), the TGI in the test with ACHN renal, with KM12 colon, with MALME-3M melanoma, with MCF7 breast, in the test on MDA-MB-435 and in the test on OVCAR-8 ovarian was above 100 µM each time. Moreover, the TGI with RPMI-8226 leukemia is 99.6 µM; in the test on SNB-19 CNS it was above 100 µM; in the test with TK-10 renal, above 100 µM.
Turning to `Cn1c(=O)cc(NNc2ccc(Cl)c(Cl)c2)[nH]c1=O`, the TGI amounted to 19.9 µM with ACHN renal; 30.2 µM with KM12 colon; 28.1 µM with LOX IMVI melanoma; 21.4 µM in the test with MCF7 breast; 14.1 µM with MDA-MB-435; 31 µM with OVCAR-8 ovarian. Moreover, the TGI is above 100 µM in the test on SNB-19 CNS and 30.6 µM in the test with TK-10 renal.
Turning to `O=C(C(=C(I)I)c1ccccc1)c1ccccc1`, the TGI with ACHN renal is above 100 µM; in the test with MALME-3M melanoma, 46.8 µM; with MCF7 breast, above 100 µM; with MDA-MB-435, above 100 µM; in the test on OVCAR-8 ovarian it was above 100 µM; with RPMI-8226 leukemia it was 45.5 µM. Also, the TGI was above 100 µM with SNB-19 CNS and 83.7 µM with TK-10 renal.
With `CC(=O)Oc1ccn2nc(C)c(Br)c2c1`, the TGI in the test on ACHN renal was above 100 µM; in the test on KM12 colon, above 100 µM; with LOX IMVI melanoma, above 100 µM; in the test on MALME-3M melanoma, above 100 µM; in the test on MCF7 breast, above 100 µM; in the test on MDA-MB-435, above 61.8 µM. Moreover, the TGI in the test with OVCAR-8 ovarian, in the test on SNB-19 CNS and with TK-10 renal was above 100 µM in each case.
Take `CSc1ccc(/C=C2\N=C(c3ccccc3)N(c3nc4cc(Cl)c(F)cc4s3)C2=O)cc1`: the TGI in the test on ACHN renal was above 100 µM; with KM12 colon, above 100 µM; with LOX IMVI melanoma it was 55.6 µM; with MCF7 breast it was above 100 µM; with MDA-MB-435, above 100 µM; with OVCAR-8 ovarian, 51.7 µM. Besides, the results for the TGI in the test on RPMI-8226 leukemia, in the test with SNB-19 CNS and in the test on TK-10 renal were above 100 µM, 76.6 µM and above 100 µM, respectively.
As for `Cc1ccc(C)c(COCCOCn2cc(N3CCOCC3)c(=O)[nH]c2=O)c1`, the TGI in the test on ACHN renal, in the test on KM12 colon, in the test on LOX IMVI melanoma, in the test with MALME-3M melanoma, with MCF7 breast and with MDA-MB-435 was above 100 µM in each case. In addition, the TGI in the test on OVCAR-8 ovarian, with SNB-19 CNS and in the test on TK-10 renal was above 100 µM in each case.
Regarding `CSc1ncc2c(n1)-c1ccccc1OC2NC1CC1` (configuration not stated), the TGI in the test with ACHN renal, with KM12 colon, in the test on LOX IMVI melanoma, in the test with MCF7 breast, in the test on MDA-MB-435 and in the test with OVCAR-8 ovarian was above 100 µM each time. Besides, the TGI in the test with RPMI-8226 leukemia was 96.9 µM; with SNB-19 CNS, above 100 µM; in the test on TK-10 renal, above 100 µM.
As to `CC(C)(C)/C(O)=C\c1nc2cc(F)c(F)cc2[nH]c1=O`, the TGI in the test on ACHN renal, with KM12 colon, with LOX IMVI melanoma, in the test on MCF7 breast, in the test on MDA-MB-435 and in the test with OVCAR-8 ovarian was above 100 µM throughout. Besides, the TGI with SNB-19 CNS and in the test on TK-10 renal was above 100 µM throughout.
As to `C=C1C[C@@H]2O[C@H]3[C@H]4[C@@H](C[C@@H](C)[C@@H](OC(C)=O)[C@H]42)[C@@H](C)CO[C@@]3(C)[C@H](OC(=O)CCCCCCC)CC1=O`, the TGI with ACHN renal turned out to be 29.5 µM; in the test with KM12 colon, 26.2 µM; in the test with LOX IMVI melanoma it was 30.1 µM; with MCF7 breast, 35.9 µM; in the test on MDA-MB-435, 30.8 µM; with OVCAR-8 ovarian it was 30.9 µM. The TGI is 13.1 µM in the test on RPMI-8226 leukemia, above 100 µM in the test with SNB-19 CNS and 32.7 µM in the test on TK-10 renal.
In the case of `O=c1c2cc([N+](=O)[O-])ccc2oc2nc3n(c(=O)c12)CCCS3`, the TGI in the test on ACHN renal, in the test on KM12 colon, in the test on MALME-3M melanoma, with MCF7 breast, with MDA-MB-435 and with RPMI-8226 leukemia was above 100 µM each time. In addition, the TGI in the test on SNB-19 CNS and with TK-10 renal was above 100 µM each time.
For `Cc1c(C(=O)NNc2ccccc2)n2c(=S)[nH]nc2c2ccccc12`, the TGI in the test with ACHN renal, in the test with KM12 colon, with LOX IMVI melanoma, in the test with MCF7 breast, in the test with MDA-MB-435 and in the test with OVCAR-8 ovarian was above 100 µM each time. The TGI in the test on RPMI-8226 leukemia, with SNB-19 CNS and in the test with TK-10 renal was above 100 µM each time.
Consider `C=C1[C@@H]2CCC3[C@]4(C)C(CC[C@@]5(C)C(=O)O[C@H](O)[C@@H]45)[C@H](O)[C@]3(C2)[C@H]1OC1OC(CO)C(O)C(O)C1O` (some centres not stated), for which the TGI with ACHN renal, with KM12 colon, in the test on LOX IMVI melanoma, with MALME-3M melanoma, in the test on MCF7 breast and in the test with OVCAR-8 ovarian was above 50 µM in each case. Moreover, the TGI in the test on RPMI-8226 leukemia, in the test with SNB-19 CNS and in the test with TK-10 renal was above 50 µM throughout.
